From patent publication US11273152B2, “TRPV2 antagonists” (Instituto de Medicina Molecular João Lobo Antunes, priority 2017, dated 2022)
Values belong to the molecule of their own block, whether it stands above or below them.

Assays:
[1] = biological target: T1, TRPV2 (Homo sapiens, UniProt Q9Y5S1); test: Fluorescence cell-based assay, TRPV2 (cannabidiol-evoked calcium influx); conditions: spread in log units; n=2; read-out: IC50 against TRPV2, fluorescence-based assay (FIG. 2a)
T1 sequence (Q9Y5S1 1-764): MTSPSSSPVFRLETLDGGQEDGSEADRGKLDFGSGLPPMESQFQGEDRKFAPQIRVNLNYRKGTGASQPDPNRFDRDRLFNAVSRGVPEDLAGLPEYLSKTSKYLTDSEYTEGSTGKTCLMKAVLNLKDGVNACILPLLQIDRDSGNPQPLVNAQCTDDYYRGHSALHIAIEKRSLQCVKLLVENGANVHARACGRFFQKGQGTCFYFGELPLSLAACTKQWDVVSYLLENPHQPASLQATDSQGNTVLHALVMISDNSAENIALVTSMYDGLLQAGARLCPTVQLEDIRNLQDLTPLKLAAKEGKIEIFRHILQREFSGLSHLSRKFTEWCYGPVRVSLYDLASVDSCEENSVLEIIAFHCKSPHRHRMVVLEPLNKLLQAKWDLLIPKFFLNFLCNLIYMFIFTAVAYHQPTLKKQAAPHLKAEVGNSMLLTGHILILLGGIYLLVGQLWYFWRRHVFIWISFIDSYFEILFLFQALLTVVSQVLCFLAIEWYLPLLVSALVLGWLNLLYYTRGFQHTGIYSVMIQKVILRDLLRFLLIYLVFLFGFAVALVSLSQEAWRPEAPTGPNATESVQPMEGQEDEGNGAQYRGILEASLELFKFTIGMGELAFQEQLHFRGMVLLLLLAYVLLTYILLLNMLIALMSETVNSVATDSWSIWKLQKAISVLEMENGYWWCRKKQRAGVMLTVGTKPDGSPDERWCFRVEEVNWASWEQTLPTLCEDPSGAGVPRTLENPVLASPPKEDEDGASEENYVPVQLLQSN
Protocol: (§1) The assays were performed at SB Discovery (Glasgow, UK) on a fee-for-service basis. Human TRP cells were trypsinised, counted and seeded in black, clear-bottomed 96 well plates at a density of 50,000 cells per well in 100 μL volume and incubated overnight. Next day, the cells were loaded with calcium 5 dye or membrane potential dye. TRPV1-5, TRPA1, TRPM2, TRPM3, and TRPM8 were tested using the calcium 5 dye. TRPC1, TRPC3-7, and TRPM4-5 were tested using the membrane potential dye. Both dye solutions were made up in HEPES buffered Hank's balanced salt solution (HBSS). Dye solution (90 μL) was added to the wells and incubated at 37° C. for 1 hour. Test compounds and standard inhibitors (10 μL) were then added to the wells and incubated at room temperature for 10 minutes. The plates were then placed in the flexstation and fluorescence monitored every 1.52 seconds. After 20 seconds agonist was added and the fluorescence monitored for 2 minutes at 485 nm/525 nm and 530 nm/565 nm, Ex/Em, for the calcium 5 dye and the membrane potential dye respectively. Controls-TRPV1: capsazepine; TRPV2: tranilast; TRPV3: ruthenium red; TRPV4: ruthenium red; TRPV5: Gd^3+; TRPA1, ruthenium red; TRPC1: Gd^3+; TRPC3: Pyr3; TRPC4: ML 204; TRPC5: ML 204; TRPC6: ML 204; TRPC7: SKF 96365; TRPM2: 2-APB; TRPM3: Mef acid; TRPM4: clotrimazole; TRPM5: TPPO; TRPM8: 2-APB. Control data was in all cases within historical range.

[2] = biological target: TRPA1 (Homo sapiens, UniProt O75762); test: Fluorescence cell-based assay, TRPA1; conditions: calcium 5 dye, spread in log units, duplicate
Protocol: as §1, with “Control data was in all cases within historical range.” left out

[3] = biological target: TRPC7 (Homo sapiens, UniProt Q9HCX4); test: Fluorescence cell-based assay, TRPC7; conditions: membrane potential dye, spread in log units, duplicate
Protocol: as §1, with “Control data was in all cases within historical range.” left out

[4] = biological target: T1, TRPV2; test: Manual patch-clamp assay, hTRPV2 stable HEK-293 cells; type: cell-based; conditions: n=3
Protocol: The assays were performed at SB Discovery (Glasgow, UK) on a fee-for-service basis. Concentration-response curves and washout assays were performed using a manual patch clamp method. HEK-293 cells were grown and prepared, according to the adapted procedure for hTRPV2 stable cell lines at SB Discovery. Cells were serum starved for approximately 24 hours and then changed to serum-containing media prior to electrophysiology testing. The manual patch-clamp assay was carried out at room temperature using a traditional electrophysiological unit. Cells were used within 2-3 hours after addition of serum containing media to the cells. The standard extracellular solution contained 145 mM NaCl, 4 mM KCl, 2 mM CaCl2, 1 mM MgCl2, 10 mM HEPES and 10 mM glucose. The pH was adjusted to 7.4 with NaOH, and the osmolarity was measured as 311 mOsm/L. The standard intracellular solution contained 50 mM KCl, 10 mM NaCl, 60 mM KF, 2 mM MgCl2, 20 mM EGTA and 10 mM HEPES. The pH was adjusted to 7.2 with KOH and the osmolarity was measured as 286 mOsm/L. A standard ramp protocol was used to monitor currents upon addition of control (extracellular solution) and compound solutions. The voltage protocol consisted of a series of voltage ramps from −100 mV to +100 mV, every 5 seconds, from a holding potential of −60 mV. The maximum outward current values during the recordings at +100 mV were used for analysis. Manual patch clamp experiments were carried out using an Axon 200B amplifier and a Digidata 1440A acquisition system from Axon Instruments (Molecular Devices, USA). The software program pClamp (version 10) from Axon Instruments was used to stimulate and record electrical activity. Capacitative transients were compensated electronically from the recordings, however the voltage drop across the series resistance and the liquid junction potential were not compensated. The series resistance was generally less than 10 MΩ, with a mean cell capacity of approximately 25 pF. The GraphPad Prism (version 5) software was used to analyze and plot all graphs. The agonist (cannabidiol; Abcam #ab120448) was prepared as 100 mM stock in 100% DMSO and diluted to 4 μM or 10 μM in physiological solution prior to testing. Piperlongumine was prepared as 100 mM stock in 100% DMSO and diluted to the specified concentrations in physiological solution (100, 50, 10, 1 and 0.1 μM), also containing 4 μM or 10 μM cannabidiol. Ruthenium red (Sigma, #R2751) was prepared daily as 10 mM stock ion distilled water and diluted to 100 μM in physiological solution.

Chain of TRPA1 (O75762 whole entry): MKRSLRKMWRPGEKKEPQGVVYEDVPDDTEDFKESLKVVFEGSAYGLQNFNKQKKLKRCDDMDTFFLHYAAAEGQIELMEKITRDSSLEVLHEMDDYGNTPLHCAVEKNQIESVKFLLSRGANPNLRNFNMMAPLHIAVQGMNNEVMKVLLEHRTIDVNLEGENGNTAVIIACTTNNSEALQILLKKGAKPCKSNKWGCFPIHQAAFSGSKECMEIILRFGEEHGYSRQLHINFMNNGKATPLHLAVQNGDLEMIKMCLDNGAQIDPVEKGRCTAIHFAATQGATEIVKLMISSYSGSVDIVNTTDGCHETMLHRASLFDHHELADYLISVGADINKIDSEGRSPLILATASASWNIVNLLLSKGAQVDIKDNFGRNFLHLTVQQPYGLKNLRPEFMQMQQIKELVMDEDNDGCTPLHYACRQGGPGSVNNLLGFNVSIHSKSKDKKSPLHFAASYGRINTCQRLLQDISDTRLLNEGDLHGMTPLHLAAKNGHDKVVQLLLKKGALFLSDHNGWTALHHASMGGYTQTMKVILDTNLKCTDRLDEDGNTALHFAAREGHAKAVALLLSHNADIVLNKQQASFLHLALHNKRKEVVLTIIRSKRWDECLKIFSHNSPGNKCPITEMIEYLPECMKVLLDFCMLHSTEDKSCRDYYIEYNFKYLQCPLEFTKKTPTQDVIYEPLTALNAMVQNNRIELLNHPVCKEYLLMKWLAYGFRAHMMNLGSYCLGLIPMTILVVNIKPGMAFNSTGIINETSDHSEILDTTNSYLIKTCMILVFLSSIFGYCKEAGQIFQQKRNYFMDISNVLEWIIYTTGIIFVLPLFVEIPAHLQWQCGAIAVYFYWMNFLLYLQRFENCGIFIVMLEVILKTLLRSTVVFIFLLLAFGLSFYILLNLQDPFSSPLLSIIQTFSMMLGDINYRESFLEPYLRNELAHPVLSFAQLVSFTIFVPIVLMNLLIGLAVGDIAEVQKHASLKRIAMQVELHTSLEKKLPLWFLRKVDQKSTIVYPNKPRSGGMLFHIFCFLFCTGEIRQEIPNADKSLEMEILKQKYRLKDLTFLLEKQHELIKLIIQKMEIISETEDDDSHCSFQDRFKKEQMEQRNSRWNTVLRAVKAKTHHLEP
Chain of TRPC7 (Q9HCX4 whole entry): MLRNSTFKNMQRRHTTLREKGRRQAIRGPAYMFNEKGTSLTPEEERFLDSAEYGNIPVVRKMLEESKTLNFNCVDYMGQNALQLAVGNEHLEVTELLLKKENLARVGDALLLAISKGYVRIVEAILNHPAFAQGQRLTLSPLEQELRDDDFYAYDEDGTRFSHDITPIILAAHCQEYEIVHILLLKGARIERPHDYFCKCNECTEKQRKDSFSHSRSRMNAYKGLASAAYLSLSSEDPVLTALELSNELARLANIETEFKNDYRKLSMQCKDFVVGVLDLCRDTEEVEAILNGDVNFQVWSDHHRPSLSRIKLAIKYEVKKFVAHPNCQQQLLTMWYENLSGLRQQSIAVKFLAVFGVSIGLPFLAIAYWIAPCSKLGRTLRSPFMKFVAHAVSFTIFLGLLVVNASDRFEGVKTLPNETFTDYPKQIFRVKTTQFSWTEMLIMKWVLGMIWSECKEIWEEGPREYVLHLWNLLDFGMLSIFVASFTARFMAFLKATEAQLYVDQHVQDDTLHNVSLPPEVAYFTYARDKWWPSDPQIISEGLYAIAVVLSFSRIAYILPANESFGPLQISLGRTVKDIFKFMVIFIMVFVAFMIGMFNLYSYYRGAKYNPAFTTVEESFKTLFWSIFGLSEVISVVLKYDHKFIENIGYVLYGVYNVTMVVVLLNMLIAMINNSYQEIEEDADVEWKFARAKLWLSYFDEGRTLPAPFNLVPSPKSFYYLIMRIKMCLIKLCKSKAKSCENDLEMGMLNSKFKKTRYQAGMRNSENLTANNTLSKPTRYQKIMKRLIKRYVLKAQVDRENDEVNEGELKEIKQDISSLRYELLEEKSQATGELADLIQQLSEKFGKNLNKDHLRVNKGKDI

IC50 [1]: 2.3 ± 0.25 µM
Structure (SMILES): COc1ccc(/C=C/C(=O)Nc2ccccc2C(=O)O)cc1OC [tranilast, reference compound]

IC50 [2]: 2.3 µM
Structure (SMILES): Cl.Cl.Cl.Cl.Cl.Cl.N.N.N.N.N.N.N.N.N.N.N.N.N.N.[O-2].[O-2].[Ru+3].[Ru+3].[Ru+4] [ruthenium red, reference compound]

IC50 [3]: 103 µM
Structure (SMILES): COc1ccc(CCCOC(Cn2ccnc2)c2ccc(OC)cc2)cc1 (centres unmarked) [SKF 96365, reference compound]

Structure (SMILES): C=C(C)[C@@H]1CCC(C)=C[C@H]1c1c(O)cc(CCCCC)cc1O [cannabidiol, reference compound]
nHill (cannabidiol), TRPV2 [4]: 0.6
EC50 ([4]; read-out: EC50 (cannabidiol), TRPV2): 3.8 µM
